Key:
[1] = test system: RKO colon adenocarcinoma cells (RKOp27) arrested by the expression of ectopic p27Kip1; test: Alamar Blue cell viability assay on RKOp27 cells arrested by Ponasterone A-induced p27Kip1 expression (cell cycle specific mode of action); assay type: cell-based; details: Homo sapiens, RKOp27 subclone induced with 10 μM Ponasterone A, 72 hours incubation, read-out: IC50 RKO p27 induced (arrested)
Method: To determine the cell cycle specific mode of action, subclones of RKO colon adenocarcinoma cells (RKOp27 or RKOp21 as described by Schmidt et al. in Oncogene 19, 2423-2429; 2000) are seeded into 96 well flat bottom plates at a density of 16000 cells per well in a volume of 50 μl per well in DMEM growth medium with 10% FCS containing 10 μM Ponasterone A. 24 hours after seeding the 50 μl each of the compound dilutions in DMEM medium are added into each well of the 96 Well plate. Each compound dilution is tested as quadruplicates. Wells containing untreated control cells are filled with 50 μl DMEM medium containing 1% DMSO. The cells are then incubated with the substances for 72 hours at 37° C. in a humidified atmosphere containing 5% carbon dioxide. To determine the viability of the cells, 10 μl of an Alamar Blue solution (Biosource) are added and the fluorescence was measured at an extinction of 544 nm and an emission of 590 nm. For the calculation of the cell viability the emission value from untreated cells is set as 100% viability and the emission rates of treated cells are set in relation to the values of untreated cells. Viabilities are expressed as % values. Viability is compared of proliferating cells grown in the absence of the inducer Ponasterone A, versus viability of cells arrested by the expression of ectopic p27Kip1 induced by Ponasterone A.

[2] = test system: RKO (RKOp27) human colon adenocarcinoma cells; test: Alamar Blue cell viability assay, anti-proliferative/cytotoxic activity on proliferating (uninduced) RKOp27 cells; assay type: cell-based; details: RKOp27 subclone without inducer, 72 hours incubation, read-out: IC50 RKO p27 uninduced (proliferating)
Method: The anti-proliferative/cytotoxic activity of the compounds described herein, can be tested on subclones of RKO (RKOp27) human colon adenocarcinoma cells (Schmidt et al., Oncogene 19, 2423-2429; 2000) using the Alamar Blue cell viability assay (described in O'Brien et al. Eur J Biochem 267, 5421-5426, 2000). The compounds are dissolved as 20 mM solutions in dimethylsulfoxide (DMSO) and subsequently diluted in semi-logarithmic steps. DMSO dilutions are further diluted 1:100 into Dulbecco's modified Eagle's medium (DMEM) containing 10% fetal calf serum to a final concentration twice as much as the final concentration in the test. RKO subclones are seeded into 96 well flat bottom plates at a density of 4000 cells per well in a volume of 50 μl per well. 24 hours after seeding the 50 μl each of the compound dilutions in DMEM medium are added into each well of the 96 Well plate. Each compound dilution is tested as quadruplicates. Wells containing untreated control cells are filled with 50 μl DMEM medium containing 1% DMSO. The cells are then incubated with the substances for 72 hours at 37° C. in a humidified atmosphere containing 5% carbon dioxide. To determine the viability of the cells, 10 μl of an Alamar Blue solution (Biosource) are added and the fluorescence is measured at an extinction of 544 nm and an emission of 590 nm. For the calculation of the cell viability the emission value from untreated cells is set as 100% viability and the emission rates of treated cells are set in relation to the values of untreated cells. Viabilities are expressed as % values.
The corresponding IC50 values of the compounds for anti-proliferative/cytotoxic activity are determined from the concentration-effect curves.
Representative IC50 values for anti-proliferation/cytotoxicity determined in the mentioned assay follow from the following table A, in which the numbers of the compound correspond to the numbers of the examples.

Row | IC50 [1] | Structure (SMILES) | IC50 [2]
1 | > 100 µM | CCOC(=O)N1CCc2c(sc(NC(=O)CC(C)c3ccccc3)c2C#N)C1 (racemic) [Example 4, 3-Cyano-2-((RS)-3-phenyl-butanoylamino)-4,7-dihydro-5H-thieno[2,3-c]pyridine-6-carboxylic acid ethyl ester] | ≤ 0.3 µM
2 | > 100 µM | CCOC(=O)N1CCc2c(sc(NC(=O)CC(C)c3cccnc3)c2C#N)C1 (racemic) [Example 49, 3-Cyano-2-((RS)-3-pyridin-3-yl-butanoylamino)-4,7-dihydro-5H-thieno[2,3-c]pyridine-6-carboxylic acid ethyl ester] | 0.3 to 2 µM
3 | ≥ 40 µM | CC(CC(=O)Nc1sc2c(c1C#N)CCN(C(=O)OCCc1ccncc1)C2)c1cccnc1 (racemic) [Example 76, 3-Cyano-2-((RS)-3-pyridin-3-yl-butanoylamino)-4,7-dihydro-5H-thieno[2,3-c]pyridine-6-carboxylic acid 2-pyridin-4-yl-ethyl ester] | 0.3 to 2 µM
4 | > 100 µM | CC(CC(=O)Nc1sc2c(c1C#N)CCN(C(=O)OCCc1cccnc1)C2)c1ccccc1 (racemic) [Example 92, 3-Cyano-2-((RS)-3-phenyl-butanoylamino)-4,7-dihydro-5H-thieno[2,3-c]pyridine-6-carboxylic acid 2-pyridin-3-yl-ethyl ester] | ≤ 0.3 µM
5 | > 100 µM | CC(CC(=O)Nc1sc2c(c1C#N)CCN(C(=O)OCCn1ccnc1)C2)c1ccccc1 (racemic) [Example 96, 3-Cyano-2-((RS)-3-phenyl-butanoylamino)-4,7-dihydro-5H-thieno[2,3-c]pyridine-6-carboxylic acid 2-imidazol-1-yl-ethyl ester] | ≤ 0.3 µM
6 | > 100 µM | CCOC(=O)N1CCc2c(sc(NC(=O)CCc3ccccc3)c2C#N)C1 [Example 1, 3-Cyano-2-(3-phenyl-propanoylamino)-4,7-dihydro-5H-thieno[2,3-c]pyridine-6-carboxylic acid ethyl ester] | ≤ 0.3 µM
7 | > 100 µM | CCOC(=O)N1CCc2c(sc(NC(=O)C3CC3c3ccccc3)c2C#N)C1 (stereo not shown) [Example 2, 3-Cyano-2-{[1-(2-phenyl-cyclopropyl)-methanoyl]-amino}-4,7-dihydro-5H-thieno[2,3-c]pyridine-6-carboxylic acid ethyl ester] | ≤ 0.3 µM
8 | > 100 µM | CCOC(=O)N1CCc2c(sc(NC(=O)CCc3ccccc3C)c2C#N)C1 [Example 3, 3-Cyano-2-(3-o-tolyl-propanoylamino)-4,7-dihydro-5H-thieno[2,3-c]pyridine-6-carboxylic acid ethyl ester] | ≤ 0.3 µM
9 | > 100 µM | CCOC(=O)N1CCc2c(sc(NC(=O)CCc3ccco3)c2C#N)C1 [Example 5, 3-Cyano-2-(3-furan-2-yl-propanoylamino)-4,7-dihydro-5H-thieno[2,3-c]pyridine-6-carboxylic acid ethyl ester] | ≤ 0.3 µM
10 | > 100 µM | CCOC(=O)N1CCc2c(sc(NC(=O)C(C)Cc3ccccc3)c2C#N)C1 (stereo not shown) [Example 6, 3-Cyano-2-(2-methyl-3-phenyl-propanoylamino)-4,7-dihydro-5H-thieno[2,3-c]pyridine-6-carboxylic acid ethyl ester] | 0.3 to 2 µM
11 | > 100 µM | CCOC(=O)N1CCc2c(sc(NC(=O)CCc3cccs3)c2C#N)C1 [Example 7, 3-Cyano-2-(3-thiophen-2-yl-propanoylamino)-4,7-dihydro-5H-thieno[2,3-c]pyridine-6-carboxylic acid ethyl ester] | ≤ 0.3 µM
12 | > 100 µM | CCOC(=O)N1CCc2c(sc(NC(=O)CCc3ccc(F)cc3)c2C#N)C1 [Example 8, 3-Cyano-2-(3-(4-fluoro-phenyl)-propanoylamino)-4,7-dihydro-5H-thieno[2,3-c]pyridine-6-carboxylic acid ethyl ester] | ≤ 0.3 µM
13 | > 100 µM | CCOC(=O)N1CCc2c(sc(NC(=O)CCc3cccnc3)c2C#N)C1 [Example 9, 3-Cyano-2-(3-pyridin-3-yl-propanoylamino)-4,7-dihydro-5H-thieno[2,3-c]pyridine-6-carboxylic acid ethyl ester] | 0.3 to 2 µM
14 | > 100 µM | CCOC(=O)N1CCc2c(sc(NC(=O)CCc3ccccc3F)c2C#N)C1 [Example 10, 3-Cyano-2-(3-(2-fluoro-phenyl)-propanoylamino)-4,7-dihydro-5H-thieno[2,3-c]pyridine-6-carboxylic acid ethyl ester] | ≤ 0.3 µM
15 | > 100 µM | CCOC(=O)N1CCc2c(sc(NC(=O)CCc3cc(C)c(C)o3)c2C#N)C1 [Example 11, 3-Cyano-2-[3-(4,5-dimethyl-furan-2-yl)-propanoylamino]-4,7-dihydro-5H-thieno[2,3-c]pyridine-6-carboxylic acid ethyl ester] | ≤ 0.3 µM
16 | > 100 µM | CCOC(=O)N1CCc2c(sc(NC(=O)CCc3cccc(F)c3)c2C#N)C1 [Example 12, 3-Cyano-2-[3-(3-fluoro-phenyl)-propanoylamino]-4,7-dihydro-5H-thieno[2,3-c]pyridine-6-carboxylic acid ethyl ester] | ≤ 0.3 µM
17 | > 100 µM | CCOC(=O)N1CCc2c(sc(NC(=O)CCc3ccccc3Cl)c2C#N)C1 [Example 13, 2-[3-(2-Chloro-phenyl)-propanoylamino]-3-cyano-4,7-dihydro-5H-thieno[2,3-c]pyridine-6-carboxylic acid ethyl ester] | ≤ 0.3 µM
18 | > 100 µM | CCOC(=O)N1CCc2c(sc(NC(=O)CCc3ccc(C)cc3)c2C#N)C1 [Example 14, 3-Cyano-2-(3-p-tolyl-propanoylamino)-4,7-dihydro-5H-thieno[2,3-c]pyridine-6-carboxylic acid ethyl ester] | ≤ 0.3 µM
19 | > 100 µM | CC(C)(C)OC(=O)N1CCc2c(sc(NC(=O)CCc3cccnc3)c2C#N)C1 [Example 15, 3-Cyano-2-(3-pyridin-3-yl-propanoylamino)-4,7-dihydro-5H-thieno[2,3-c]pyridine-6-carboxylic acid tert-butyl ester] | ≤ 0.3 µM
20 | > 100 µM | CCOC(=O)N1CCc2c(sc(NC(=O)CCc3cccc(Cl)c3)c2C#N)C1 [Example 16, 2-[3-(3-Chloro-phenyl)-propanoylamino]-3-cyano-4,7-dihydro-5H-thieno[2,3-c]pyridine-6-carboxylic acid ethyl ester] | ≤ 0.3 µM
21 | > 100 µM | CCOC(=O)N1CCc2c(sc(NC(=O)CCc3ccc(Cl)cc3)c2C#N)C1 [Example 17, 2-[3-(4-Chloro-phenyl)-propanoylamino]-3-cyano-4,7-dihydro-5H-thieno[2,3-c]pyridine-6-carboxylic acid ethyl ester] | ≤ 0.3 µM
22 | > 100 µM | CCOC(=O)N1CCc2c(sc(NC(=O)CCc3cccc(C)c3)c2C#N)C1 [Example 18, 3-Cyano-2-(3-m-tolyl-propanoylamino)-4,7-dihydro-5H-thieno[2,3-c]pyridine-6-carboxylic acid ethyl ester] | ≤ 0.3 µM
23 | > 100 µM | CCOC(=O)N1CCc2c(sc(NC(=O)CCC3CCCCC3)c2C#N)C1 [Example 19, 3-Cyano-2-(3-cyclohexyl-propanoylamino)-4,7-dihydro-5H-thieno[2,3-c]pyridine-6-carboxylic acid ethyl ester] | 0.3 to 2 µM

Reference: patent US7714135B2, “Tetrahydropyridothiophenes for the treatment of proliferative diseases such as cancer” (4SC AG, priority 2005, dated 2010)
